Source: US20220033431A1, “Cyclic Di-Nucleotide Compounds as STING Agonists” (Merck Sharp & Dohme Corp., priority 2018, published 2022)
Read-outs that look alike come from different tables or passages of the source.

Legend:
full-length HAQ STING = target: T1, full-length HAQ STING (Homo sapiens, UniProt Q86WV6, G230A/H232R/R293Q/R71H); assay: 3H-cGAMP filtration binding assay (HAQ STING); conditions: 3H-cGAMP filtration binding assay for HAQ STING; competition with tritiated cGAMP
T1 construct: Full-Length HAQ STING [STING(1-379)R71H, G230A, H232R,; made in house; host or cells: Trichoplusia ni insect cells (baculovirus made in Sf21); membrane preparation
T1 sequence (Q86WV6 with tags, fused parts or gaps R71H/G230A/H232R/R293Q): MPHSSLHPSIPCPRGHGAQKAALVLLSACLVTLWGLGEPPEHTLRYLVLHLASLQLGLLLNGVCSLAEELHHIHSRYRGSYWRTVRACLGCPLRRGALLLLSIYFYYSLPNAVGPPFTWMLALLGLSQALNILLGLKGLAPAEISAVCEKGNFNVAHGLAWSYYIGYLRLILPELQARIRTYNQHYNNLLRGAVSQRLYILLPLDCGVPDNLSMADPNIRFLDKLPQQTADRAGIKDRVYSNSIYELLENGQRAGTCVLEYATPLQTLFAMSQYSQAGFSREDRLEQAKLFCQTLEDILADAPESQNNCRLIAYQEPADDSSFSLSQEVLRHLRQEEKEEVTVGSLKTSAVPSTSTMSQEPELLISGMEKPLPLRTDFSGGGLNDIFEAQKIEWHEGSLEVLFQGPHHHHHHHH
Description: The ability of compounds to bind STING is quantified by their ability to compete with tritiated cGAMP ligand for human STING receptor membrane using a radioactive filter-binding assay. The binding assay employs STING receptor obtained from Trichoplusia ni cell membranes (T.ni; Expression Systems, cat #94-002F, www.expressionsystems.com) overexpressing full-length HAQ STING and tritiated cGAMP ligand.
The basic HAQ STING filtration assay protocol is as follows:
Compound and membrane then preincubated for 60 min at RT to allow compound binding to equilibrate. Following equilibration, 8 nM of [^3H]c-GAMP ligand was prepared by diluting into assay buffer, and 50 uL of this working stock was then manually added to each well of the assay plate. […] The filter plates were then dried at 55° C. for 30 min using a pressurized oven before 30 uL of ULTIMA GOLD F scintillate was added to each well. Tritium levels for each reaction well were then measured using a PerkinElmer TopCount plate reader.
After normalization to controls, the percent activity for each compound concentration was calculated by measuring the amount of remaining radioactivity. The plot of percent activity versus the log of compound concentration was fit with a 4-parameter dose response equation to calculate EC50 values.

THP1 cells = assay: IFN-β secretion in THP1 cell culture (5 h); type: cell-based, human; conditions: 30 uM cGAMP = 100%; for activation at 30 µM: Homo sapiens, THP-1, 5 h
Description: The ability of compounds to stimulate the secretion of interferon-beta from THP1 cells was measured using a human IFN-β AlphaLISA kit (Perkin Elmer, Cat. No. AL265F). The basic protocol is as follows:
A Labcyte Echo 550 acoustic dispenser was used to transfer 120 nL of compound dissolved in DMSO into the wells of an empty, sterile 384-well microplate, (Corning, Cat. No. 3712). THP1 cells (American Type Culture Collection, Cat. No. TIB202) previously frozen in Recovery Medium (Life Technologies, Cat. No. 12648-010) were thawed and immediately diluted 10-fold into 37° C. assay medium (RPMI 1640+L-Glutamine & phenol red, Life Technologies, Cat. No. 11875-085; 0.5% heat inactivated fetal bovine serum, Sigma Aldrich, Cat. No. F4135; 1 mM Sodium Pyruvate, Life Technologies, Cat. No. 11360-070; lx non essential amino acids; Life Technologies, Cat. No. 11140-050). The cell viability and count was ascertained using a Beckman Coulter V-Cell XR cell counter. The cell suspension was centrifuged at 200×g for 5 min at RT. Cells were resuspended to a density of 0.8×10^6/mL in 37° C. assay medium. Subsequent liquid transfers were performed using either a Matrix electronic multichannel pipette or an Agilent Bravo Automated Liquid Handling Platform.
The assay was started by dispensing 40 μL of the previously prepared cell suspension into the wells of the plate containing compounds. After 5 h incubation at 37° C., 5% CO2 in a humidified atmosphere, the plate of cells and compounds was centrifuged at 200×g for 5 min at RT. From each well, […] of supernatant was transferred into corresponding wells of a white 384-well plate (Perkin Elmer, Cat. No. 6005620). To these supernatant-containing wells was added 10 μL of 5× Anti-Analyte Acceptor beads (50 μg/mL of AlphaLISA HiBlock Buffer) and incubated for 30 min at RT while shaking on an orbital plate shaker. To each well was added 10 μL of 5× Biotinylated Antibody Anti-analyte (5 nM in AlphaLISA HiBlock Buffer) and incubated on an orbital plate shaker for 60 min at RT or overnight at 4° C. To each well was added 25 μL of 2× SA-Donor beads ([…] in AlphaLISA HiBlock Buffer) and incubated for 30-45 min at RT in the dark while shaking on an orbital plate shaker. The plate was then read on a Perkin Elmer Envision (λex=680 nm, λem=[…]). The percent effect of the AlphaLISA signal at each compound concentration was calculated based on 30 uM cGAMP positive controls and 0.3% DMSO negative controls. The plot of percent effect versus the log of compound concentration was fit with a 4-parameter concentration response equation to calculate EC50 values. The test compounds were tested at concentrations 30000, 10000, 3333, 1111, 370.4, 123.4, 41.2, 13.7, 4.6, and 1.5 nM with 0.3% residual DMSO. The control compound, cGAMP was tested at concentrations 100000, 33333, 11111, 3704, 1235, 412, 137, 46, and 15 nM with 0.3% residual DMSO.
Compounds of the disclosure were evaluated for IFN-β secretion in THP1 cell culture as described above. The following table tabulates the biological data for these compounds as percent activation relative to 2′3′-cGAMP at the 30 μM concentration.

[1] = IFN-β secretion, THP1 cells, 5 h, 30 μM, read-out: % Effect at 30 μM relative to 2′3′-cGAMP
[2] = IFN-β secretion, THP1 cells, 5 h, 30 μM

| Structure (SMILES) | EC50 (full-length HAQ STING) [µM] | activation at 30 µM (THP1 cells; [1]) [%] | % Effect at 30 μM relative to 2′3′-cGAMP (THP1 cells; [2]) [%] | activation at 30 µM (THP1 cells; read-out: % Effect at 30 μM relative to 2′3′-cGAMP, IFN-β secretion, THP1 cells, 5 h, 30 μM) [%] |
| --- | --- | --- | --- | --- |
| Nc1nc2c(nnn2[C@@H]2O[C@@H]3COP(=O)(S)O[C@H]4C[C@H](n5ccc6c(N)ncnc65)O[C@@H]4COP(=O)(S)O[C@H]2[C@@H]3F)c(=O)[nH]1 (single isomer, unassigned) [Example 25] | 0.0999 | 92 | – | – |
| Nc1nc2c(ncn2[C@@H]2O[C@@H]3COP(=O)(S)O[C@H]4[C@H](F)[C@H](n5nnc6c(N)ncnc65)O[C@@H]4COP(=O)(S)O[C@H]2C3)c(=O)[nH]1 (single isomer, unassigned) [Example 8] | 0.026 | – | 145 | – |
| Nc1nc2c(ncn2[C@@H]2O[C@@H]3COP(=O)(O)O[C@H]4[C@H](F)[C@H](n5cnc6c(N)ncnc65)O[C@@H]4COP(=O)(S)O[C@H]2[C@@H]3F)c(=O)[nH]1 (single isomer, unassigned) [Example 14] | – | – | 257 | – |
| Nc1nc2c(ncn2[C@@H]2O[C@@H]3COP(=O)(S)O[C@H]4[C@H](F)[C@H](n5cnc6c(N)ncnc65)O[C@@H]4COP(=O)(S)O[C@H]2[C@@H]3F)c(=O)[nH]1 (single isomer, unassigned) [Example 16] | – | – | 188 | – |
| Nc1nc2c(ncn2[C@@H]2O[C@@H]3COP(=O)(O)O[C@H]4[C@H](F)[C@H](n5cnc6c(N)ncnc65)O[C@@H]4COP(=O)(S)O[C@H]2[C@@H]3F)c(=O)[nH]1 (single isomer, unassigned) [Example 13] | – | – | 79 | – |
| Nc1nc2c(ncn2[C@@H]2O[C@@H]3COP(=O)(S)O[C@H]4[C@H](F)[C@H](n5cnc6c(N)ncnc65)O[C@@H]4COP(=O)(S)O[C@H]2[C@@H]3F)c(=O)[nH]1 (single isomer, unassigned) [Example 17] | – | – | 141 | – |
| Nc1nc2c(nnn2[C@@H]2O[C@@H]3COP(=O)(S)O[C@H]4C[C@H](n5ccc6c(N)ncnc65)O[C@@H]4COP(=O)(S)O[C@H]2[C@@H]3F)c(=O)[nH]1 (single isomer, unassigned) [Example 26] | 0.00562 | – | 79 | – |
| Nc1nc2c(ncn2[C@@H]2O[C@@H]3COP(=O)(S)O[C@H]4[C@H]5OC[C@]4(COP(=O)(S)O[C@H]2[C@@H]3O)O[C@H]5n2cnc3c(N)ncnc32)c(=O)[nH]1 (single isomer, unassigned) [Example 5] | – | 113 | – | – |
| Nc1nc2c(nnn2[C@@H]2O[C@@H]3COP(=O)(S)O[C@H]4[C@H](F)[C@H](n5nnc6c(N)ncnc65)O[C@@H]4COP(=O)(S)O[C@H]2[C@@H]3F)c(=O)[nH]1 (stereo partly drawn) [Example 24, 5-amino-3-[(5R,7R,8R,12aR,14R,15S,15aR,16R)-14-(7-amino-3H-[1,2,3]triazolo[4,5-d]pyrimidin-3-yl)-15,16-difluoro-2,10-dioxido-2,10-disulfanyloctahydro-12H-5,8-methanofuro[3,2-1][1,3,6,9,11,2,10]pentaoxadiphosphacyclotetradecin-7-yl]-3,6-dihydro-7H-[1,2,3]triazolo[4,5-d]pyrimidin-7-one] | – | – | – | 129 |
| Nc1nc2c(ncn2[C@@H]2O[C@@H]3COP(=O)(S)O[C@H]4[C@H](F)[C@H](n5nnc6c(N)ncnc65)O[C@@H]4COP(=O)(S)O[C@H]2C3)c(=O)[nH]1 (single isomer, unassigned) [Example 6] | 0.241 | – | 60 | – |
| Nc1nc2c(ncn2[C@@H]2O[C@@H]3COP(=O)(S)O[C@H]4[C@H](F)[C@H](n5cnc6c(N)ncnc65)O[C@@H]4COP(=O)(S)O[C@H]2[C@@H]3F)c(=O)[nH]1 (single isomer, unassigned) [Example 15] | – | – | 31 | – |
| Nc1nc2c(nnn2[C@@H]2O[C@@H]3COP(=O)(S)O[C@H]4C[C@H](n5ccc6c(N)ncnc65)O[C@@H]4COP(=O)(S)O[C@H]2C3)c(=O)[nH]1 (single isomer, unassigned) [Example 22] | – | 69 | – | – |
| Nc1nc2c(ncn2[C@@H]2O[C@@H]3COP(=O)(S)O[C@H]4[C@H](F)[C@H](n5nnc6c(N)ncnc65)O[C@@H]4COP(=O)(S)O[C@H]2[C@@H]3O)c(=O)[nH]1 (single isomer, unassigned) [Example 3] | 0.0513 | – | 128 | – |
| Nc1nc2c(ncn2[C@@H]2O[C@@H]3COP(=O)(S)O[C@H]4[C@H](F)[C@H](n5nnc6c(N)ncnc65)O[C@@H]4COP(=O)(S)O[C@H]2[C@@H]3O)c(=O)[nH]1 (single isomer, unassigned) [Example 1] | 1.14 | – | 24 | – |
| Nc1nc2c(ncn2[C@@H]2O[C@@H]3COP(=O)(S)O[C@H]4[C@H](F)[C@H](n5nnc6c(N)ncnc65)O[C@@H]4COP(=O)(S)O[C@H]2C3)c(=O)[nH]1 (single isomer, unassigned) [Example 7] | 3.67 | – | 15 | – |
| Nc1nc2c(ncn2[C@@H]2O[C@@H]3COP(=O)(S)O[C@H]4[C@H]5OC[C@]4(COP(=O)(S)O[C@H]2[C@@H]3O)O[C@H]5n2cnc3c(N)ncnc32)c(=O)[nH]1 (single isomer, unassigned) [Example 4] | – | – | 113 | – |
| Nc1nc2c(ncn2[C@@H]2O[C@@H]3COP(=O)(S)O[C@H]4[C@H](F)[C@H](n5nnc6c(N)ncnc65)O[C@@H]4COP(=O)(S)O[C@H]2[C@@H]3O)c(=O)[nH]1 (single isomer, unassigned) [Example 2] | 1.13 | – | 29 | – |
